Data reported in patent US20060093617A1, “Peptides for inducing a CTL and/or HTL response to hepatitis C virus” (Innogenetics, N.V., priority 2004, published 2006).
Where a SMILES comes first, the peptide text is derived from it.

Assays:
Assay in all cases: Competition binding assay using soluble HLA class II
DRB1*0401 = molecular target: T1, DRB1*0401 (Homo sapiens, UniProt P01903+P01911, A100K/A169T/F76Y/I96L/K127E/L162R/M171V/N62H/P40V/Q125Y/R42H/S133A/S149N/S66Y/V115G/V209L/W38E); conditions: HLA-DRB1*0401; individual experiment or mean of several
T1 construct: endogenous in cells; host or cells: cell lysate

DRB1*0101 = molecular target: T2, DRB1*0101 (Homo sapiens, UniProt P01903+P01911, A100R/D57E/F55L/F60I/F76Y/I96L/L162R/M171V/P40L/Q125E/R42F/V115G/Y59C)
T2 construct: endogenous in cells; host or cells: cell lysate

DRB1*0301 = molecular target: T3, DRB1*0301 (Homo sapiens, UniProt P01903+P01911, A100K/A102G/A103R/A169T/F55Y/I96L/K41T/L162R/M171V/P40S/Q125H/Q178H/Q39Y/R42S/S66N/T106N/T262R/W38E/Y61H)
T3 construct: endogenous in cells; HLA-DR was extracted from cell lysates on an LB3.1 antibody column

**Q.** `CC(C)C[C@H](NC(=O)[C@@H](NC(=O)[C@@H](NC(=O)[C@@H](N)CC(C)C)C(C)C)C(C)C)C(=O)N[C@@H](C)C(=O)N[C@H](C(=O)N[C@@H](C)C(=O)N[C@H](C(=O)N1CCC[C@H]1C(=O)N1CCC[C@H]1C(=O)NCC(=O)N[C@@H](CO)C(=O)N[C@H](C(=O)N[C@H](C(=O)N[C@H](C(=O)O)C(C)C)[C@@H](C)O)C(C)C)[C@@H](C)O)[C@@H](C)O` (H-LVVLATATPPGSVTV-OH; N-terminus and C-terminus assumed) was tested. Which IC50 (DRB1*0401) did it give?
**A.** 4 nM

**Q.** What about the IC50 (DRB1*0101) of the same compound?
**A.** 73 nM

**Q.** And the IC50 (DRB1*0301)?
**A.** 4230 nM
